Data: ChEMBL document CHEMBL1201862, “PubChem BioAssay data set” (2004)
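These data come from cells grown in 96-well plates and exposed to compound for 48 hours at five concentrations. The concentration for 50% growth inhibition is given as GI50.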 The source made the active and inactive calls. Rule as the data show it: active = GI50 up to about 1.1 µM and inactive = higher.

Tests used:
Test in all cases: inhibition of tumour cell growth, NCI panel, 48 h
ACHN = system: ACHN
SF-539 = system: SF-539
K562 = system: K562
DU-145 = system: DU-145
SNB-75 = system: SNB-75
UO-31 = system: UO-31
A549 = system: A549
SK-OV-3 = system: SK-OV-3
HCT-116 = system: HCT-116
RXF 393 = system: RXF 393
IGROV-1 = system: IGROV-1
PC-3 = system: PC-3
MOLT-4 = system: MOLT-4
MCF7 = system: MCF7
NCI-H23 = system: NCI-H23
Hs-578T = system: Hs-578T
HCT-15 = system: HCT-15
LOX IMVI = system: LOX IMVI
KM12 = system: KM12
TK-10 = system: TK-10
NCI-H226 = system: NCI-H226
COLO 205 = system: COLO 205
NCI-H522 = system: NCI-H522
T47D = system: T47D
EKVX = system: EKVX
RPMI-8226 = system: RPMI-8226
NCI/ADR-RES = system: NCI/ADR-RES
Malme-3M = system: Malme-3M
SK-MEL-5 = system: SK-MEL-5
OVCAR-3 = system: OVCAR-3
SK-MEL-2 = system: SK-MEL-2
UACC-62 = system: UACC-62
CAKI-1 = system: CAKI-1
UACC-257 = system: UACC-257
MDA-MB-435 = system: MDA-MB-435
M14 = system: M14
HL-60 = system: HL-60
SNB-19 = system: SNB-19
BT-549 = system: BT-549
786-0 = system: 786-0
U-251 = system: U-251
SN12C = system: SN12C
MDA-MB-231 = system: MDA-MB-231
SW-620 = system: SW-620
OVCAR-8 = system: OVCAR-8
CCRF-CEM = system: CCRF-CEM
SK-MEL-28 = system: SK-MEL-28
MDA-N = system: MDA-N
OVCAR-5 = system: OVCAR-5
A498 = system: A498
HT-29 = system: HT-29
SF-295 = system: SF-295
HOP-62 = system: HOP-62
OVCAR-4 = system: OVCAR-4
SR = system: SR
SF-268 = system: SF-268
HOP-92 = system: HOP-92
NCI-H460 = system: NCI-H460
HCC 2998 = system: HCC 2998

Structure (SMILES): C[N+]1(C)C2CC(OC(=O)C(CO)c3ccccc3)CC1C1OC12 (configuration not stated)
- GI50 (ACHN): > 100 µM (inactive)
- GI50 (SF-539): > 100 µM (inactive)
- GI50 (K562): > 100 µM (inactive)
- GI50 (DU-145): > 100 µM (inactive)
- GI50 (SNB-75): > 100 µM (inactive)
- GI50 (UO-31): > 100 µM (inactive)
- GI50 (A549): > 100 µM (inactive)
- GI50 (SK-OV-3): > 100 µM (inactive)
- GI50 (HCT-116): > 100 µM (inactive)
- GI50 (RXF 393): > 100 µM (inactive)
- GI50 (IGROV-1): > 100 µM (inactive)
- GI50 (PC-3): > 100 µM (inactive)
- GI50 (MOLT-4): > 100 µM (inactive)
- GI50 (MCF7): > 100 µM (inactive)
- GI50 (NCI-H23): > 100 µM (inactive)
- GI50 (Hs-578T): > 100 µM (inactive)
- GI50 (HCT-15): > 100 µM
- GI50 (LOX IMVI): > 100 µM (inactive)
- GI50 (KM12): > 100 µM (inactive)
- GI50 (TK-10): > 100 µM (inactive)
- GI50 (NCI-H226): > 100 µM (inactive)
- GI50 (COLO 205): > 100 µM (inactive)
- GI50 (NCI-H522): > 100 µM (inactive)
- GI50 (T47D): > 100 µM (inactive)
- GI50 (EKVX): > 100 µM (inactive)
- GI50 (RPMI-8226): > 100 µM (inactive)
- GI50 (NCI/ADR-RES): > 100 µM (inactive)
- GI50 (Malme-3M): > 100 µM (inactive)
- GI50 (SK-MEL-5): > 100 µM (inactive)
- GI50 (OVCAR-3): > 100 µM (inactive)
- GI50 (SK-MEL-2): > 100 µM (inactive)
- GI50 (UACC-62): > 100 µM (inactive)
- GI50 (CAKI-1): > 100 µM (inactive)
- GI50 (UACC-257): > 100 µM (inactive)
- GI50 (MDA-MB-435): > 100 µM (inactive)
- GI50 (M14): > 100 µM (inactive)
- GI50 (HL-60): > 100 µM (inactive)
- GI50 (SNB-19): > 100 µM (inactive)
- GI50 (BT-549): > 100 µM (inactive)
- GI50 (786-0): > 100 µM (inactive)
- GI50 (U-251): > 100 µM (inactive)
- GI50 (SN12C): > 100 µM (inactive)
- GI50 (MDA-MB-231): > 100 µM (inactive)
- GI50 (SW-620): > 100 µM (inactive)
- GI50 (OVCAR-8): > 100 µM (inactive)
- GI50 (CCRF-CEM): > 100 µM (inactive)
- GI50 (SK-MEL-28): > 100 µM (inactive)
- GI50 (MDA-N): > 100 µM (inactive)
- GI50 (OVCAR-5): > 100 µM (inactive)
- GI50 (A498): > 100 µM (inactive)
- GI50 (HT-29): > 100 µM (inactive)
- GI50 (SF-295): > 100 µM (inactive)
- GI50 (HOP-62): > 100 µM (inactive)
- GI50 (OVCAR-4): > 100 µM (inactive)
- GI50 (SR): > 100 µM (inactive)

Structure (SMILES): C[Si](C)(C)C#Cc1cc(-c2nc3ccccc3s2)ccc1N
- GI50 (ACHN): 15.7 µM (inactive)
- GI50 (SF-539): 18.7 µM (inactive)
- GI50 (K562): 27.8 µM (inactive)
- GI50 (DU-145): 26.6 µM (inactive)
- GI50 (SNB-75): 12.7 µM (inactive)
- GI50 (UO-31): 13.4 µM (inactive)
- GI50 (A549): 19.4 µM (inactive)
- GI50 (SK-OV-3): 19 µM (inactive)
- GI50 (HCT-116): 13.7 µM (inactive)
- GI50 (RXF 393): 17.5 µM (inactive)
- GI50 (IGROV-1): < 0.01 µM (active)
- GI50 (PC-3): 16.2 µM (inactive)
- GI50 (SF-268): 16.8 µM (inactive)
- GI50 (MOLT-4): 29.2 µM (inactive)
- GI50 (MCF7): 0.491 µM (active)
- GI50 (NCI-H23): 18.5 µM (inactive)
- GI50 (Hs-578T): 20.8 µM (inactive)
- GI50 (HCT-15): 16.9 µM
- GI50 (LOX IMVI): 17.8 µM (inactive)
- GI50 (KM12): 15.2 µM (inactive)
- GI50 (TK-10): 11.7 µM (inactive)
- GI50 (NCI-H226): 14.4 µM (inactive)
- GI50 (COLO 205): 15.5 µM (inactive)
- GI50 (NCI-H522): 13.9 µM (inactive)
- GI50 (T47D): 18.7 µM (inactive)
- GI50 (EKVX): 12 µM (inactive)
- GI50 (RPMI-8226): 21.8 µM (inactive)
- GI50 (NCI/ADR-RES): 17.5 µM (inactive)
- GI50 (Malme-3M): 3.35 µM (inactive)
- GI50 (SK-MEL-5): 15.5 µM (inactive)
- GI50 (OVCAR-3): 17.3 µM (inactive)
- GI50 (UACC-62): 16.3 µM (inactive)
- GI50 (CAKI-1): 14.2 µM (inactive)
- GI50 (UACC-257): 19.5 µM (inactive)
- GI50 (MDA-MB-435): 18.3 µM (inactive)
- GI50 (M14): 16.5 µM (inactive)
- GI50 (HL-60): 23.3 µM (inactive)
- GI50 (HOP-92): 11.5 µM (inactive)
- GI50 (SNB-19): 18.7 µM (inactive)
- GI50 (BT-549): 18.3 µM (inactive)
- GI50 (786-0): 17 µM (inactive)
- GI50 (U-251): 19.2 µM (inactive)
- GI50 (SN12C): 15.5 µM (inactive)
- GI50 (MDA-MB-231): 17.2 µM (inactive)
- GI50 (SW-620): 18.1 µM (inactive)
- GI50 (NCI-H460): 15.9 µM (inactive)
- GI50 (OVCAR-8): 16.7 µM (inactive)
- GI50 (CCRF-CEM): 21.7 µM (inactive)
- GI50 (MDA-N): 17.8 µM (inactive)
- GI50 (OVCAR-5): 16.5 µM (inactive)
- GI50 (A498): 19.9 µM (inactive)
- GI50 (HT-29): 20.1 µM (inactive)
- GI50 (SF-295): 18.6 µM (inactive)
- GI50 (HOP-62): 16.2 µM (inactive)
- GI50 (OVCAR-4): 14.9 µM (inactive)
- GI50 (SR): 26.4 µM (inactive)

Structure (SMILES): CC12CP(=O)(c3ccccc3)CC1c1ccccc1C2c1ccccc1 (configuration not stated)
- GI50 (ACHN): 18 µM (inactive)
- GI50 (SF-539): 17.8 µM (inactive)
- GI50 (K562): 5.9 µM (inactive)
- GI50 (DU-145): 21 µM (inactive)
- GI50 (UO-31): 16.7 µM (inactive)
- GI50 (A549): 16.4 µM (inactive)
- GI50 (SK-OV-3): 40.1 µM (inactive)
- GI50 (HCT-116): 14.3 µM (inactive)
- GI50 (RXF 393): 20.8 µM (inactive)
- GI50 (IGROV-1): 3.44 µM (inactive)
- GI50 (PC-3): 12.4 µM (inactive)
- GI50 (SF-268): 26.1 µM (inactive)
- GI50 (MOLT-4): 11.4 µM (inactive)
- GI50 (MCF7): > 100 µM (inactive)
- GI50 (NCI-H23): 20.7 µM (inactive)
- GI50 (Hs-578T): 26.3 µM (inactive)
- GI50 (HCT-15): 13.7 µM
- GI50 (KM12): 17.3 µM (inactive)
- GI50 (TK-10): 62.2 µM (inactive)
- GI50 (NCI-H226): 19.7 µM (inactive)
- GI50 (T47D): 16.4 µM (inactive)
- GI50 (EKVX): 17.9 µM (inactive)
- GI50 (NCI/ADR-RES): 14.2 µM (inactive)
- GI50 (Malme-3M): 15.6 µM (inactive)
- GI50 (SK-MEL-5): 19.1 µM (inactive)
- GI50 (OVCAR-3): 16.7 µM (inactive)
- GI50 (SK-MEL-2): 28 µM (inactive)
- GI50 (UACC-62): 29.2 µM (inactive)
- GI50 (MDA-MB-435): 15.2 µM (inactive)
- GI50 (M14): 17.5 µM (inactive)
- GI50 (HL-60): 7.52 µM (inactive)
- GI50 (HOP-92): 22.1 µM (inactive)
- GI50 (SNB-19): 48 µM (inactive)
- GI50 (BT-549): > 10 µM (inactive)
- GI50 (786-0): 17.3 µM (inactive)
- GI50 (U-251): 16.5 µM (inactive)
- GI50 (SN12C): 17.9 µM (inactive)
- GI50 (MDA-MB-231): 18.5 µM (inactive)
- GI50 (SW-620): 17 µM (inactive)
- GI50 (HCC 2998): 17.7 µM (inactive)
- GI50 (NCI-H460): 14.5 µM (inactive)
- GI50 (OVCAR-8): 15.2 µM (inactive)
- GI50 (CCRF-CEM): 3.04 µM (inactive)
- GI50 (SK-MEL-28): 29.4 µM (inactive)
- GI50 (MDA-N): 16.6 µM (inactive)
- GI50 (OVCAR-5): 30.9 µM (inactive)
- GI50 (A498): 27.7 µM (inactive)
- GI50 (HT-29): 15.5 µM (inactive)
- GI50 (SF-295): 15.6 µM (inactive)
- GI50 (HOP-62): 18.5 µM (inactive)
- GI50 (SR): 14.3 µM (inactive)
